Consider 11 compounds from ChEMBL document CHEMBL1201862, “PubChem BioAssay data set” (2004).

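Compound exposure: 48 hours, 5 concentrations, 96-well plates. GI50 = concentration required for 50% inhibition of growth.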 Active and inactive are the calls of the source. Rule as the data show it: active = GI50 up to about 1.1 µM and inactive = higher.

Among the test systems are HT-29; HOP-62; T47D; LOX IMVI; OVCAR-3; MOLT-4; NCI-H23; OVCAR-4; K562; RPMI-8226; SK-MEL-2; NCI/ADR-RES; ACHN; CAKI-1; HCT-116; SF-295; OVCAR-8; SF-268; CCRF-CEM; MDA-N.
Test in all cases: inhibition of tumour cell growth, NCI panel, 48 h

`CC(C)(C)c1cc(/C=C2/NC(=O)NC2=O)cc(C(C)(C)C)c1O`: the GI50 is 11.7 µM (inactive) in the experiment with HT-29; 17.1 µM (inactive) in the experiment on HOP-62; 2.91 µM (inactive) in the experiment on T47D; 15.8 µM (inactive) with LOX IMVI; 14.2 µM (inactive) with OVCAR-3; 17.1 µM (inactive) with MOLT-4. In addition, the GI50 in the experiment on NCI-H23 is 15 µM (inactive); in the experiment with OVCAR-4 it was 11.4 µM (inactive); with K562 it was 13.2 µM (inactive); in the experiment on RPMI-8226, 11.4 µM (inactive); in the experiment with SK-MEL-2 it was 13.8 µM (inactive); with NCI/ADR-RES, 14.1 µM (inactive). For the same compound, the GI50 is 11.8 µM (inactive) in the experiment on ACHN; 16.8 µM (inactive) in the experiment with CAKI-1; 14.1 µM (inactive) with HCT-116; 14.8 µM (inactive) with SF-295; 16.3 µM (inactive) in the experiment with OVCAR-8; 14.3 µM (inactive) in the experiment with SF-268. In addition, the GI50 in the experiment on CCRF-CEM is 11.9 µM (inactive).

On to `NCc1ccc(C(=O)O)cc1` [AMINOMETHYLBENZOIC ACID], for which the GI50 with HT-29, in the experiment with HOP-62, in the experiment on T47D, in the experiment on LOX IMVI, with OVCAR-3 and in the experiment with MOLT-4 was > 100 µM (inactive) each time. Moreover, the GI50 in the experiment with MDA-N, in the experiment with NCI-H23, with OVCAR-4, in the experiment on K562, with NCI/ADR-RES and in the experiment on ACHN was > 100 µM (inactive) in each case. In addition, the GI50 in the experiment on CAKI-1, in the experiment on HCT-116, in the experiment on SF-295, in the experiment on OVCAR-8 and with SF-268 was > 100 µM (inactive) throughout.

For `Cc1ccc(C)c2c1NC(=O)/C2=N\Nc1ccccc1[N+](=O)[O-]`, the GI50 was 55.8 µM (inactive) with HOP-62; > 100 µM (inactive) in the experiment on T47D; > 100 µM (inactive) in the experiment with LOX IMVI; > 100 µM (inactive) in the experiment on OVCAR-3; > 100 µM (inactive) in the experiment on MOLT-4; > 100 µM (inactive) in the experiment on MDA-N. The GI50 in the experiment with NCI-H23 was > 100 µM (inactive); with OVCAR-4, 38 µM (inactive); with K562, 74.1 µM (inactive); with RPMI-8226 it was > 100 µM (inactive); in the experiment on SK-MEL-2 it was 78 µM (inactive); in the experiment with ACHN it was > 100 µM (inactive). For the same compound, the GI50 with CAKI-1, with HCT-116, in the experiment with SF-295, with SF-268 and in the experiment with CCRF-CEM was > 100 µM (inactive) throughout.

Take `O=c1/c(=C\c2ccccc2)sc2n1C(c1ccccc1)C1(O)CCCCC1N=2` (configuration not stated): the GI50 with HT-29 is > 100 µM (inactive); in the experiment with HOP-62, > 100 µM (inactive); in the experiment with T47D, 51.5 µM (inactive); with LOX IMVI, > 100 µM (inactive); with OVCAR-3 it was > 100 µM (inactive); in the experiment with MOLT-4, 42.1 µM (inactive). Moreover, the GI50 was > 100 µM (inactive) in the experiment on MDA-N; 56.9 µM (inactive) with NCI-H23; 50.6 µM (inactive) with OVCAR-4; 45.2 µM (inactive) in the experiment with K562; 59.8 µM (inactive) with RPMI-8226; 62.1 µM (inactive) in the experiment with SK-MEL-2. The GI50 in the experiment on ACHN is 87.9 µM (inactive); with CAKI-1, > 100 µM (inactive); in the experiment with HCT-116, 51.3 µM (inactive); in the experiment on OVCAR-8, > 100 µM (inactive); in the experiment with SF-268 it was > 100 µM (inactive); with CCRF-CEM it was 91 µM (inactive).

Turning to `COc1ccc(P2(=S)OC(C)(C)C(C)(C)O2)cc1`, the GI50 is > 100 µM (inactive) with HT-29; > 100 µM (inactive) with HOP-62; 6.93 µM (inactive) in the experiment with T47D; > 100 µM (inactive) in the experiment on LOX IMVI; > 100 µM (inactive) in the experiment on OVCAR-3; > 100 µM (inactive) in the experiment with MOLT-4. Besides, the GI50 in the experiment on MDA-N, in the experiment on NCI-H23, in the experiment on OVCAR-4, in the experiment on K562, in the experiment on SK-MEL-2 and in the experiment on NCI/ADR-RES was > 100 µM (inactive) each time. The GI50 was > 100 µM (inactive) in the experiment with ACHN; 50.9 µM (inactive) in the experiment on CAKI-1; > 100 µM (inactive) in the experiment with HCT-116; > 100 µM (inactive) in the experiment with SF-295; > 100 µM (inactive) in the experiment on OVCAR-8; > 100 µM (inactive) in the experiment with CCRF-CEM.

As to `CC(=O)c1[nH]c(Nc2ccc(C)cc2)c(C(=S)Nc2ccccc2)c1N`, the GI50 was 25.8 µM (inactive) in the experiment on HT-29; 20.8 µM (inactive) in the experiment with HOP-62; 12.8 µM (inactive) in the experiment with T47D; 16.4 µM (inactive) in the experiment with LOX IMVI; 15.2 µM (inactive) in the experiment with OVCAR-3; 30.1 µM (inactive) in the experiment on MOLT-4. The GI50 is 16 µM (inactive) in the experiment on MDA-N; 17.8 µM (inactive) in the experiment with NCI-H23; 17.5 µM (inactive) with OVCAR-4; 9.31 µM (inactive) in the experiment with K562; 15.5 µM (inactive) in the experiment on SK-MEL-2; 26.8 µM (inactive) with NCI/ADR-RES. In addition, the GI50 is 18.8 µM (inactive) in the experiment with ACHN; 16.9 µM (inactive) in the experiment with CAKI-1; 16.7 µM (inactive) with HCT-116; 17.8 µM (inactive) in the experiment on SF-295; 18.1 µM (inactive) in the experiment on OVCAR-8; 14.5 µM (inactive) in the experiment on SF-268. Further, the GI50 with CCRF-CEM is 21 µM (inactive).

Turning to `N#CCc1nc(-c2ccccc2)n[nH]1`, the GI50 in the experiment on HT-29, in the experiment on HOP-62, with T47D, in the experiment with LOX IMVI, in the experiment with OVCAR-3 and in the experiment on MOLT-4 was > 100 µM (inactive) throughout. The GI50 is > 100 µM (inactive) in the experiment with MDA-N; > 100 µM (inactive) with NCI-H23; > 100 µM (inactive) in the experiment with OVCAR-4; 76.6 µM (inactive) with K562; > 100 µM (inactive) in the experiment on SK-MEL-2; > 100 µM (inactive) in the experiment with NCI/ADR-RES. Further, the GI50 with ACHN, in the experiment on CAKI-1, with HCT-116, in the experiment on SF-295, in the experiment on OVCAR-8 and in the experiment with SF-268 was > 100 µM (inactive) in each case. Further, the GI50 in the experiment with CCRF-CEM is > 100 µM (inactive).

In the case of `CCOC(=O)c1sc2c(c1O)c(=O)n(-c1ccccc1)c(=S)n2-c1ccccc1`, the GI50 in the experiment with HT-29 was 80.5 µM (inactive); in the experiment on T47D it was > 100 µM (inactive); in the experiment with LOX IMVI, > 100 µM (inactive); in the experiment on OVCAR-3, 51.1 µM (inactive); in the experiment with MDA-N, > 100 µM (inactive); in the experiment on NCI-H23, 91.4 µM (inactive). The GI50 with OVCAR-4 is > 100 µM (inactive); in the experiment with K562, 42.8 µM (inactive); in the experiment on RPMI-8226 it was 28.2 µM (inactive); in the experiment with SK-MEL-2, > 100 µM (inactive); in the experiment on ACHN it was 81.1 µM (inactive); with SF-295, 35.5 µM (inactive). Also, the GI50 is 54.7 µM (inactive) in the experiment with OVCAR-8, > 100 µM (inactive) in the experiment on SF-268 and 32.7 µM (inactive) in the experiment with CCRF-CEM.

As for `Fc1ccccc1CN1COc2c(cc(Cl)c3cccnc23)C1`, the GI50 in the experiment with HT-29 is 7.85 µM (inactive); with HOP-62, 1.16 µM (inactive); with T47D, 3.6 µM (inactive); in the experiment with OVCAR-3, 3.75 µM (inactive); in the experiment with MOLT-4, 0.239 µM (active); in the experiment on NCI-H23 it was 1.6 µM (inactive). Also, the GI50 with OVCAR-4 is 0.596 µM (active); with K562, 1.3 µM (inactive); with RPMI-8226, < 0.01 µM (active); with SK-MEL-2 it was 3.93 µM (inactive); with NCI/ADR-RES, 0.0425 µM (active); with ACHN it was 0.533 µM (active). Also, the GI50 in the experiment with CAKI-1 is 1.65 µM (inactive); in the experiment with HCT-116, 1.26 µM (inactive); in the experiment with SF-295, 0.726 µM (active); in the experiment on OVCAR-8, 1.53 µM (inactive); in the experiment on SF-268, 2.62 µM (inactive).

Take `COC(=O)C1=C(C(=O)OC)SC(=C2S[C@@H]3[C@@H]4C[C@H]([C@@H]3S2)[C@H]2C(=O)OC(=O)[C@@H]42)S1`: the GI50 in the experiment with HT-29, in the experiment with HOP-62, in the experiment on T47D, in the experiment with LOX IMVI, in the experiment on OVCAR-3 and in the experiment on MOLT-4 was > 100 µM (inactive) throughout. Besides, the GI50 in the experiment with NCI-H23, with OVCAR-4, in the experiment with K562, with RPMI-8226, in the experiment on SK-MEL-2 and in the experiment with NCI/ADR-RES was > 100 µM (inactive) throughout. For the same compound, the GI50 in the experiment on ACHN, in the experiment with CAKI-1, in the experiment on HCT-116, in the experiment with SF-295, in the experiment with OVCAR-8 and in the experiment with SF-268 was > 100 µM (inactive) each time. In the experiment on CCRF-CEM, the GI50 is > 100 µM (inactive).

For the compound `CN1CCN(C(=O)CCC(=O)Nc2cc3c(c4ccccc24)-c2ccc4ccccc4c2C3)CC1`, the GI50 in the experiment with HT-29 was 1.72 µM (inactive); with HOP-62, 1.69 µM (inactive); with T47D, 1.7 µM (inactive); in the experiment on LOX IMVI, 1.77 µM (inactive); in the experiment on OVCAR-3, 1.63 µM (inactive); in the experiment on MOLT-4, 1.77 µM (inactive). Besides, the GI50 in the experiment with NCI-H23 was 1.97 µM (inactive); in the experiment with OVCAR-4, 1.5 µM (inactive); with K562, 1.91 µM (inactive); with RPMI-8226, 1.96 µM (inactive); in the experiment on SK-MEL-2, 1.97 µM (inactive); in the experiment on NCI/ADR-RES, 2.21 µM (inactive). The GI50 in the experiment on ACHN is 2.12 µM (inactive); with CAKI-1, 1.53 µM (inactive); in the experiment with HCT-116 it was 1.55 µM (inactive); in the experiment on SF-295, 1.71 µM (inactive); in the experiment with OVCAR-8, 2.18 µM (inactive); in the experiment with SF-268, 1.8 µM (inactive). For the same compound, the GI50 in the experiment on CCRF-CEM is 2.08 µM (inactive).
